# Measurements from publication PMC9604400, “Synthesis, Anticancer and Antitubercular Properties of New Chalcones and Their Nitrogen-Containing Five-Membered Heterocyclic Hybrids Bearing Sulfonamide Moiety” (International Journal of Molecular Sciences, 2022).
# Experiments:
# [1] = tested on: 60 human cancer cell lines; assay: NCI-60 screen (SRB), whole panel; format: cell-based; details: Homo sapiens
# leukemia cell lines = assay: NCI-60 screen (SRB), leukemia panel; format: cell-based; details: Homo sapiens; leukemia panel, single dose 10 μM; read-out: GI (growth inhibition), range over panel
# colon cancer cell lines = assay: NCI-60 screen (SRB), colon cancer panel; format: cell-based; details: Homo sapiens, single dose 10 μM, read-out: GI (growth inhibition), range over panel
# breast cancer cell lines = assay: NCI-60 screen (SRB), breast cancer panel; format: cell-based; details: Homo sapiens, single dose 10 μM, read-out: GI (growth inhibition), range over panel
# HL-60(TB) = assay: cells; details: Homo sapiens
# K-562 = assay: NCI-60 screen (SRB), leukemia; details: Homo sapiens
# MOLT-4 = assay: NCI-60 screen (SRB), leukemia; details: Homo sapiens
# RPMI-8226 = assay: NCI-60 screen (SRB), leukemia; details: Homo sapiens
# SR = assay: NCI-60 screen (SRB), leukemia; details: Homo sapiens
# LOX IMVI = assay: NCI-60 screen (SRB), melanoma; details: Homo sapiens
# MDA-MB-435 = assay: NCI-60 screen (SRB), melanoma; details: Homo sapiens
# SK-MEL-28 = assay: NCI-60 screen (SRB), melanoma; details: Homo sapiens
# UACC-62 = assay: NCI-60 screen (SRB), melanoma; details: Homo sapiens
# SF-268 = assay: NCI-60 screen (SRB), CNS cancer; details: Homo sapiens
# SF-539 = assay: NCI-60 screen (SRB), CNS cancer; details: Homo sapiens
# U251 = assay: NCI-60 screen (SRB), CNS cancer; details: Homo sapiens
# HCC-2998 = assay: NCI-60 screen (SRB), colon cancer; details: Homo sapiens
# HCT-15 = assay: NCI-60 screen (SRB), colon cancer; details: Homo sapiens
# HT29 = assay: NCI-60 screen (SRB), colon cancer; details: Homo sapiens
# KM12 = assay: NCI-60 screen (SRB), colon cancer; details: Homo sapiens
# SW-620 = assay: NCI-60 screen (SRB), colon cancer; details: Homo sapiens
# CAKI-1 = assay: NCI-60 screen (SRB), renal cancer; details: Homo sapiens
# SN12C = assay: NCI-60 screen (SRB), renal cancer; details: Homo sapiens
# TK-10 = assay: NCI-60 screen (SRB), renal cancer; details: Homo sapiens
# UO-31 = assay: NCI-60 screen (SRB), renal cancer; details: Homo sapiens
# HS 578T = assay: NCI-60 screen (SRB), breast cancer; details: Homo sapiens, Hs-578T
# T-47D = assay: NCI-60 screen (SRB), breast cancer; details: Homo sapiens, T47D
# IGROV1 = assay: NCI-60 screen (SRB), ovarian cancer; details: Homo sapiens
# OVCAR-4 = assay: NCI-60 screen (SRB), ovarian cancer; details: Homo sapiens
# OVCAR-5 = assay: NCI-60 screen (SRB), ovarian cancer; details: Homo sapiens
# OVCAR-8 = assay: NCI-60 screen (SRB), ovarian cancer; details: Homo sapiens
# SK-OV-3 = assay: NCI-60 screen (SRB), ovarian cancer; details: Homo sapiens
# DU-145 = assay: NCI-60 screen (SRB), prostate cancer; details: Homo sapiens
# A549/ATCC = assay: NCI-60 screen (SRB), non-small cell lung cancer; details: Homo sapiens
compound,measurement,setting,value
"COc1cc(OC)c(S(N)(=O)=O)cc1C(=O)/C=C/c1ccc(C)cc1 [Compound 17c, (E)-2,4-Dimethoxy-5-(3-(p-tolyl)acryloyl)benzenesulfonamide]",IC50,"[1]; five-dose screen, read-out: IC50 values against most cell lines (range)",0.54 to 11.5 µM
same,inhibition at 10 µM,"[1]; single dose 10 μM, mean over 60 cell lines, over 100% = cell death, read-out: Mean growth inhibition (GI) percentage",81.2%
same,inhibition at 10 µM,leukemia cell lines,78.9 to 94.3%
same,inhibition at 10 µM,colon cancer cell lines,83 to 100%
same,inhibition at 10 µM,breast cancer cell lines,78.7 to 100%
same,IC50,HL-60(TB); HL-60,2.52 µM
same,CC50,"HL-60(TB); HL-60, read-out: LC50",> 100 µM
same,IC50,K-562; K562,2.43 µM
same,CC50,"K-562; K562, read-out: LC50",> 100 µM
same,IC50,MOLT-4; MOLT-4,3.07 µM
same,CC50,"MOLT-4; MOLT-4, read-out: LC50",> 100 µM
same,IC50,RPMI-8226; RPMI-8226,3.2 µM
same,CC50,"RPMI-8226; RPMI-8226, read-out: LC50",> 100 µM
same,IC50,SR,2.26 µM
same,CC50,SR; read-out: LC50,> 100 µM
same,IC50,LOX IMVI,0.54 µM
same,CC50,LOX IMVI; read-out: LC50,76.2 µM
same,IC50,MDA-MB-435; MDA-MB-435,2.27 µM
same,CC50,"MDA-MB-435; MDA-MB-435, read-out: LC50",25.4 µM
same,IC50,SK-MEL-28; SK-MEL-28,4.09 µM
same,CC50,"SK-MEL-28; SK-MEL-28, read-out: LC50",40.8 µM
same,IC50,UACC-62; UACC-62,3.63 µM
same,CC50,"UACC-62; UACC-62, read-out: LC50",46.2 µM
same,IC50,SF-268; SF-268,3.2 µM
same,CC50,"SF-268; SF-268, read-out: LC50",> 100 µM
same,IC50,SF-539; SF-539,2.17 µM
same,CC50,"SF-539; SF-539, read-out: LC50",14.4 µM
same,IC50,U251; U-251,2.66 µM
same,CC50,"U251; U-251, read-out: LC50",32.7 µM
same,IC50,HCC-2998; HCC 2998,2.39 µM
same,CC50,"HCC-2998; HCC 2998, read-out: LC50",22.3 µM
same,IC50,HCT-15; HCT-15,2.56 µM
same,CC50,"HCT-15; HCT-15, read-out: LC50",74.8 µM
same,IC50,HT29; HT-29,3.5 µM
same,CC50,"HT29; HT-29, read-out: LC50",64.7 µM
same,IC50,KM12; KM12,3.13 µM
same,CC50,"KM12; KM12, read-out: LC50",> 100 µM
same,IC50,SW-620; SW-620,3.43 µM
same,CC50,"SW-620; SW-620, read-out: LC50",75.8 µM
same,IC50,CAKI-1; CAKI-1,2.42 µM
same,CC50,"CAKI-1; CAKI-1, read-out: LC50",35.2 µM
same,IC50,SN12C,2.95 µM
same,CC50,SN12C; read-out: LC50,38.8 µM
same,IC50,TK-10; TK-10,3.41 µM
same,CC50,"TK-10; TK-10, read-out: LC50",39.6 µM
same,IC50,UO-31; UO-31,3.46 µM
same,CC50,"UO-31; UO-31, read-out: LC50",38.1 µM
same,IC50,HS 578T,3.5 µM
same,CC50,HS 578T; read-out: LC50,> 100 µM
same,IC50,T-47D,2.32 µM
same,CC50,T-47D; read-out: LC50,44.8 µM
same,IC50,IGROV1; IGROV-1,3.56 µM
same,CC50,"IGROV1; IGROV-1, read-out: LC50",72.4 µM
same,IC50,OVCAR-4; OVCAR-4,3.66 µM
same,CC50,"OVCAR-4; OVCAR-4, read-out: LC50",53.2 µM
same,IC50,OVCAR-5; OVCAR-5,2.57 µM
same,CC50,"OVCAR-5; OVCAR-5, read-out: LC50",27.2 µM
same,IC50,OVCAR-8; OVCAR-8,2.17 µM
same,CC50,"OVCAR-8; OVCAR-8, read-out: LC50",15.8 µM
same,IC50,SK-OV-3; SK-OV-3,3.18 µM
same,CC50,"SK-OV-3; SK-OV-3, read-out: LC50",32.5 µM
same,IC50,DU-145; DU-145,4.23 µM
same,CC50,"DU-145; DU-145, read-out: LC50",65.1 µM
same,IC50,A549/ATCC; A549,2.75 µM
same,CC50,"A549/ATCC; A549, read-out: LC50",34.8 µM
